{
  "source": "patent US20170246235A1",
  "about": "“GREEN TEA COMPOSITIONS” (priority 2014, published 2017)",
  "key": {"P. falciparum": {"system": "P. falciparum", "assay": "Parasite growth measured by radiolabeled hypoxanthine uptake", "format": "cell-based, Plasmodium falciparum", "experimental": "Growth was measured by hypoxanthine uptake using radiolabeled hypoxanthine. […] ([…]) indicates rep. […] Graphpad Prism 6 software was used to analyse the data using the equation for log(inhibitor) vs. normalized response (variable slope).\nThis example was carried out to determine the parasiticidal efficacy of Phytofare® green tea extract containing catechins. The extract was resuspended in water to give a stock concentration of 58 mg/ml. Parasite growth was measured by hypoxanthine uptake using radiolabeled hypoxanthine as described (Slavic, K. et al., Mol. Biochem. Parasitol. 168:113-116, 2009). […] Each experiment included five technical replicates, and a total of three biological replicates were carried out.\nThe assay was repeated to obtain the IC50 values for pure caffeine, and for Epigallocatechin Gallate (EGCG) which is present in the extract, obtained from a different source. The concentration ranges used were 352.44 μM to 0.69 μM for caffeine, and 371.01 μM to 0.73 μM for EGCG. These concentrations reflect the molar concentrations present at the highest concentration (μg/ml) of extract used."}, "α-amylase": {"system": "α-amylase", "settings": "cited from earlier work; for inhibition of α-amylase: at a concentration of 20 μM"}, "[1]": {"settings": "after oral green tea extract; cited from earlier work"}, "[2]": {"settings": "meta-analysis of 97 studies, Manach et al. (2005); cited from earlier work"}, "HIV-1 integrase": {"target": "T1, HIV-1 integrase (Human immunodeficiency virus type 1 group M subtype B, UniProt P04585)", "T1 construct": "Full-length recombinant HIV-1 integrase protein (200 nM, purified from bacteria); literature Express Biotech International; host or cells: bacteria", "settings": "cited from earlier work"}, "breast cancer cells": {"system": "breast cancer cells", "settings": "cited from earlier work"}, "MMP2": {"system": "MMP2", "settings": "cited from earlier work"}, "MMP9": {"system": "MMP9", "settings": "cited from earlier work"}, "[3]": {"settings": "cited from earlier work"}},
  "note": "Read-outs that look alike come from different tables or passages of the source.",
  "data": [
    {"compound": "Cn1c(=O)c2c(ncn2C)n(C)c1=O", "note": "[caffeine]", "values": [
      {"measurement": "inhibition by caffeine alone", "setting": "P. falciparum; even at 352.44 μM", "result": "no inhibition"},
      {"measurement": "IC50, rep. 1", "setting": "P. falciparum; independent IC50 assay rep. 1", "result": "no calculable IC50 values"},
      {"measurement": "IC50, rep. 2", "setting": "P. falciparum; independent IC50 assay rep. 2", "result": "no calculable IC50 values"},
      {"measurement": "IC50, rep. 3", "setting": "P. falciparum; independent IC50 assay rep. 3", "result": "no calculable IC50 values"}
    ]},
    {"compound": "Oc1cc(O)c2c(c1)O[C@H](c1cc(O)c(O)c(O)c1)[C@H](O)C2", "note": "[EGC, epi-gallocatechin]", "values": [
      {"measurement": "inhibition of α-amylase", "setting": "α-amylase", "result": 13, "unit": "%"},
      {"measurement": "area-under-curve, aqueous humor", "setting": "[1]", "result": "2.035 ± 0.5317", "unit": "µM·h"},
      {"measurement": "concentration in aqueous humor", "setting": "[1]", "result": "602.9 ± 116.7", "unit": "nM"},
      {"measurement": "elimination half-life", "setting": "[2]", "result": "2.3 ± 0.2", "unit": "h"}
    ]},
    {"compound": "Oc1cc(O)c2c(c1)O[C@H](c1cc(O)c(O)c(O)c1)[C@@H](O)C2", "note": "[gallocatechin]", "values": [
      {"measurement": "area-under-curve, retina", "setting": "[1]", "result": "207,000 pmol×h/g"},
      {"measurement": "highest concentration in the retina", "setting": "[1]", "result": "22729.4 ± 4229.4", "unit": "pmol/g"}
    ]},
    {"compound": "epigallocatechin-3-gallate [EGCG]", "values": [
      {"measurement": "IC50", "setting": "P. falciparum; ± S.E.M., read-out: IC50, means of the three independent experiments", "result": 80.8, "unit": "µM"},
      {"measurement": "effect on Km of α-amylase", "setting": "α-amylase; 50 μM EGCG, p=0.1", "result": "did not significantly affect"},
      {"measurement": "Vmax of α-amylase", "setting": "α-amylase; 50 μM EGCG, reduced from 323.3", "result": 206.1, "unit": "product/min/mg protein"},
      {"measurement": "inhibition of α-amylase", "setting": "α-amylase", "result": 34, "unit": "%"},
      {"measurement": "IC50 for HIV-1 integrase", "setting": "HIV-1 integrase", "result": "slightly higher than Raltegravir"},
      {"measurement": "inhibition of invasion by breast cancer cells", "setting": "breast cancer cells; 20 μg/ml in the media", "result": "about 26%"},
      {"measurement": "inhibition of invasion by breast cancer cells", "setting": "breast cancer cells; 50 μg/ml in the media", "result": "~100", "unit": "%"},
      {"measurement": "production of MMP2", "setting": "MMP2; 20 ug/ml in the media", "result": "reduced"},
      {"measurement": "activity of MMP2", "setting": "MMP2; 50 μg/ml and 100 ug/ml", "result": "completely inhibited"},
      {"measurement": "production of MMP9", "setting": "MMP9; 20 ug/ml in the media", "result": "completely inhibited"},
      {"measurement": "activity of MMP9", "setting": "MMP9; 50 μg/ml and 100 ug/ml", "result": "completely inhibited"},
      {"measurement": "cellular toxicity to the corneal epithelium", "setting": "[3]; 0.01% or 0.1% EGCG", "result": "No cellular toxicity"},
      {"measurement": "decrease in corneal fluorescein staining compared with the vehicle", "setting": "[3]; topical 0.1% EGCG", "result": 24.6, "unit": "%"},
      {"measurement": "decrease in corneal fluorescein staining compared with untreated controls", "setting": "[3]; topical 0.1% EGCG", "result": 41.9, "unit": "%"},
      {"measurement": "decrease in number of CD11b+ cells, central cornea, compared with the vehicle", "setting": "[3]; topical 0.1% EGCG", "result": 26.1, "unit": "%"},
      {"measurement": "decrease in number of CD11b+ cells, peripheral cornea, compared with the vehicle", "setting": "[3]; topical 0.1% EGCG", "result": 23.3, "unit": "%"},
      {"measurement": "elimination half-life", "setting": "[2]", "result": "3.5 ± 0.3", "unit": "h"}
    ]},
    {"compound": "Oc1cc(O)c2c(c1)O[C@H](c1ccc(O)c(O)c1)[C@H](O)C2", "note": "[epicatechin]", "values": [
      {"measurement": "elimination half-life", "setting": "[2]", "result": "2.5 ± 0.4", "unit": "h"}
    ]}
  ]
}
